Experimental data: the NIST ThermoML archive (doi:10.1021/je030236t)
Numbers after ± are expanded uncertainties.

Columns and labels:
[1] = Molar enthalpy of transition or fusion; settings: Crystal; DSC
[2] = molar enthalpy of vaporization or sublimation; settings: 298.15 K; Liquid
[3] = Liquid

| Compound | molar enthalpy [2] | vapor or sublimation pressure ([3]; 298.15 K) | vapor or sublimation pressure ([3]; 310 K) | vapor or sublimation pressure ([3]; 320 K) | vapor or sublimation pressure ([3]; 330 K) | vapor or sublimation pressure ([3]; 340 K) | vapor or sublimation pressure ([3]; 350 K) | vapor or sublimation pressure ([3]; 360 K) | vapor or sublimation pressure ([3]; 370 K) | vapor or sublimation pressure ([3]; 380 K) | vapor or sublimation pressure ([3]; 390 K) | vapor or sublimation pressure ([3]; 400 K) | vapor or sublimation pressure ([3]; 410 K) | vapor or sublimation pressure ([3]; 420 K) | vapor or sublimation pressure ([3]; 430 K) | vapor or sublimation pressure ([3]; 440 K) | vapor or sublimation pressure ([3]; 450 K) | vapor or sublimation pressure ([3]; 460 K) | vapor or sublimation pressure ([3]; 470 K) | vapor or sublimation pressure ([3]; 480 K) | other results |
| --- | --- | --- | --- | --- | --- | --- | --- | --- | --- | --- | --- | --- | --- | --- | --- | --- | --- | --- | --- | --- | --- |
| c1ccc(-c2cc(-c3ccccc3)cc(-c3ccccc3)c2)cc1 [1,3,5-triphenylbenzene] | – | – | – | – | – | – | – | – | – | – | – | – | – | – | – | – | – | – | – | – | Molar enthalpy of transition or fusion [1]: 7.43 ± 0.215 kcal/mol |
| CCCCCCCCCCCCCCCCCCCCCCCCCCCCCCCCCCCCC [heptatriacontane] | 44.8 ± 2.29 kcal/mol | 1.49e-14 ± 4.5e-15 kPa | 2.63e-13 ± 7.9e-14 kPa | 2.43e-12 ± 7.3e-13 kPa | 1.89e-11 ± 5.7e-12 kPa | 1.26e-10 ± 3.8e-11 kPa | 7.35e-10 ± 2.2e-10 kPa | 3.77e-09 ± 1.1e-09 kPa | 1.72e-08 ± 5.2e-09 kPa | 7.09e-08 ± 2.1e-08 kPa | 2.65e-07 ± 8e-08 kPa | 9.09e-07 ± 2.7e-07 kPa | 2.87e-06 ± 8.6e-07 kPa | 8.43e-06 ± 2.5e-06 kPa | 2.31e-05 ± 6.9e-06 kPa | 5.96e-05 ± 1.8e-05 kPa | 0.000145 ± 4.4e-05 kPa | 0.000335 ± 0.0001 kPa | 0.000735 ± 0.00022 kPa | 0.00154 ± 0.00046 kPa | vapor or sublimation pressure ([3]; 490 K): 0.0031 ± 0.00093 kPa; vapor or sublimation pressure ([3]; 500 K): 0.006 ± 0.0018 kPa; vapor or sublimation pressure ([3]; 510 K): 0.0112 ± 0.0034 kPa; vapor or sublimation pressure ([3]; 520 K): 0.0202 ± 0.0061 kPa; vapor or sublimation pressure ([3]; 530 K): 0.0353 ± 0.011 kPa; vapor or sublimation pressure ([3]; 540 K): 0.0598 ± 0.018 kPa; vapor or sublimation pressure ([3]; 550 K): 0.0987 ± 0.03 kPa; vapor or sublimation pressure ([3]; 560 K): 0.159 ± 0.048 kPa; vapor or sublimation pressure ([3]; 570 K): 0.25 ± 0.075 kPa; vapor or sublimation pressure ([3]; 580 K): 0.383 ± 0.12 kPa |
| CCCCCCCCCCCCCCCCCCCCCCCCCCCCCCCC [dotriacontane] | 38.8 ± 2.01 kcal/mol | 3.62e-12 ± 7.3e-13 kPa | 4.33e-11 ± 8.7e-12 kPa | 2.95e-10 ± 5.9e-11 kPa | 1.74e-09 ± 3.5e-10 kPa | 8.99e-09 ± 1.8e-09 kPa | 4.12e-08 ± 8.2e-09 kPa | 1.69e-07 ± 3.4e-08 kPa | 6.31e-07 ± 1.3e-07 kPa | 2.14e-06 ± 4.3e-07 kPa | 6.71e-06 ± 1.3e-06 kPa | 1.95e-05 ± 3.9e-06 kPa | 5.27e-05 ± 1e-05 kPa | 0.000134 ± 2.7e-05 kPa | 0.000321 ± 6.4e-05 kPa | 0.000729 ± 0.00015 kPa | 0.00158 ± 0.00032 kPa | 0.00325 ± 0.00065 kPa | 0.00643 ± 0.0013 kPa | 0.0122 ± 0.0024 kPa | vapor or sublimation pressure ([3]; 490 K): 0.0224 ± 0.0045 kPa; vapor or sublimation pressure ([3]; 500 K): 0.0398 ± 0.008 kPa; vapor or sublimation pressure ([3]; 510 K): 0.0684 ± 0.014 kPa; vapor or sublimation pressure ([3]; 520 K): 0.114 ± 0.023 kPa; vapor or sublimation pressure ([3]; 530 K): 0.185 ± 0.037 kPa; vapor or sublimation pressure ([3]; 540 K): 0.294 ± 0.059 kPa; vapor or sublimation pressure ([3]; 550 K): 0.454 ± 0.091 kPa; vapor or sublimation pressure ([3]; 560 K): 0.687 ± 0.14 kPa; vapor or sublimation pressure ([3]; 570 K): 1.02 ± 0.2 kPa; vapor or sublimation pressure ([3]; 580 K): 1.48 ± 0.3 kPa |
| CCCCCCCCCCCCCCCCCCCCCCCCCCCCCCC [hentriacontane] | 37.6 ± 1.96 kcal/mol | 1.11e-11 ± 2.2e-12 kPa | 1.23e-10 ± 2.5e-11 kPa | 7.88e-10 ± 1.6e-10 kPa | 4.39e-09 ± 8.8e-10 kPa | 2.15e-08 ± 4.3e-09 kPa | 9.39e-08 ± 1.9e-08 kPa | 3.69e-07 ± 7.4e-08 kPa | 1.32e-06 ± 2.6e-07 kPa | 4.3e-06 ± 8.6e-07 kPa | 1.3e-05 ± 2.6e-06 kPa | 3.64e-05 ± 7.3e-06 kPa | 9.56e-05 ± 1.9e-05 kPa | 0.000236 ± 4.7e-05 kPa | 0.00055 ± 0.00011 kPa | 0.00122 ± 0.00024 kPa | 0.00256 ± 0.00051 kPa | 0.00517 ± 0.001 kPa | 0.01 ± 0.002 kPa | 0.0187 ± 0.0037 kPa | vapor or sublimation pressure ([3]; 490 K): 0.0336 ± 0.0067 kPa; vapor or sublimation pressure ([3]; 500 K): 0.0585 ± 0.012 kPa; vapor or sublimation pressure ([3]; 510 K): 0.0989 ± 0.02 kPa; vapor or sublimation pressure ([3]; 520 K): 0.163 ± 0.033 kPa; vapor or sublimation pressure ([3]; 530 K): 0.26 ± 0.052 kPa; vapor or sublimation pressure ([3]; 540 K): 0.406 ± 0.081 kPa; vapor or sublimation pressure ([3]; 550 K): 0.619 ± 0.12 kPa; vapor or sublimation pressure ([3]; 560 K): 0.925 ± 0.18 kPa; vapor or sublimation pressure ([3]; 570 K): 1.35 ± 0.27 kPa; vapor or sublimation pressure ([3]; 580 K): 1.95 ± 0.39 kPa |
| CCCCCCCCCCCCCCCCCCCCCCCCCCCCCCCCCC [tetratriacontane] | 41.3 ± 2.1 kcal/mol | 3.83e-13 ± 7.7e-14 kPa | 5.39e-12 ± 1.1e-12 kPa | 4.16e-11 ± 8.3e-12 kPa | 2.75e-10 ± 5.5e-11 kPa | 1.58e-09 ± 3.2e-10 kPa | 7.97e-09 ± 1.6e-09 kPa | 3.59e-08 ± 7.2e-09 kPa | 1.45e-07 ± 2.9e-08 kPa | 5.34e-07 ± 1.1e-07 kPa | 1.8e-06 ± 3.6e-07 kPa | 5.58e-06 ± 1.1e-06 kPa | 1.61e-05 ± 3.2e-06 kPa | 4.34e-05 ± 8.7e-06 kPa | 0.00011 ± 2.2e-05 kPa | 0.000263 ± 5.3e-05 kPa | 0.000596 ± 0.00012 kPa | 0.00129 ± 0.00026 kPa | 0.00266 ± 0.00053 kPa | 0.00527 ± 0.001 kPa | vapor or sublimation pressure ([3]; 490 K): 0.01 ± 0.002 kPa; vapor or sublimation pressure ([3]; 500 K): 0.0184 ± 0.0037 kPa; vapor or sublimation pressure ([3]; 510 K): 0.0328 ± 0.0066 kPa; vapor or sublimation pressure ([3]; 520 K): 0.0564 ± 0.011 kPa; vapor or sublimation pressure ([3]; 530 K): 0.0944 ± 0.019 kPa; vapor or sublimation pressure ([3]; 540 K): 0.154 ± 0.031 kPa; vapor or sublimation pressure ([3]; 550 K): 0.244 ± 0.049 kPa; vapor or sublimation pressure ([3]; 560 K): 0.379 ± 0.076 kPa; vapor or sublimation pressure ([3]; 570 K): 0.575 ± 0.12 kPa; vapor or sublimation pressure ([3]; 580 K): 0.856 ± 0.17 kPa |
